In paper PMC7440915, “Discovery of surrogate agonists for visceral fat Treg cells that modulate metabolic indices in vivo” (eLife, 2020):
Where no end group is shown, it is not given here.

Test system: vTreg53 Treg cells
Test: Expansion of transferred vTreg53 Treg cells in Spl/LN or VAT after prime and boost
Format: in vivo, mouse
Conditions: compared with adjuvant alone, CFA s.c. then IFA i.p.
From the text: Figure 4. SPs induce proliferation and activation of vTreg53 Treg cells in vitro and in vivo. (A–D) Proliferation and activation of vTreg53 Treg cells by different concentrations of SPs for 3 days in vitro (n = 3). (A) Representative flow cytometric plot of cell division. (B) Summary of cell proliferation. (C) Mean flourescence intensity (MFI) of CD44 staining in clonotype^+ Treg cells. (D) MFI of CD62L staining in clonotype^+ Treg cells. (E) Proliferation of transferred CD45.2^+ vTreg53 Treg cells in the spleen of CD45.1^+ B6 recipient mice immunized s.c. with CFA or CFA/Fat1562 at day 3 (n = 3). […]
To assess early Treg proliferation following peptide stimulation in vivo, 0.4 million Treg cells were sorted from pooled Spl and LNs of 6-8wk-old male CD45.2^+ Tg^+ Foxp3-GFP^KI/y mice by Moflo, labeled by the CellTrace Violet dye (ThermoFisher Scientific), and were i.v.-injected into 6-8wk old male B6.CD45.1^+ mice. […] Proliferation of clonotype^+ Tregs in the spleen was determined three days later. […] Six weeks later, the recipient mice were immunized with 200 µg CFA/peptides s.c. on the lower back, and one week later were boosted with 100 μg IFA/peptides i.p. After another week, clonotype^+ CD45.2^+ Treg cells from the Spl/LNs or VAT of recipient mice were analyzed by flow cytometry and double-sorted for ultra-low-input RNA-seq. […]

TMYKNPRPMAATG [Fat1562]
expansion of clonotype^+ Treg cells in VAT: > 25 fold
